Data taken from patent publication US10932480B2, “Animal feed additive containing diurnosid and/or cestrumosid” (priority 2016, dated 2021).

Test system: broilers
Assay: Field test in broilers, diurnoside/cestrumoside plus vitamin D3 metabolites (Example 1)
Type: in vivo
Conditions: in combination with diurnoside or cestrumoside versus control groups with calcitriol or calcifediol alone, FIG. 1
From the text: In a commercial boiler feeding operation, five stalls each with approximate 43,000 animals were compared with regard to the incidence of osteochondrosis/dyschondroplasia in a field test. All the stalls were fed using conventional boiler fattening feed, distributed under the brand name GeflügelmastKorn® (Company: Garant Tiernahrung [Garant Animal Nutrition]), wherein no further additives were used in stall K1 (controls).
For stall K2 (control group calcitriol), a feed additive containing 20 ppm calcitriol in an amount of 150 ppm (based on feed with 88% dry solids) was mixed into the broiler fattening feed.
For stall K2 (control group calcifediol), a feed additive containing 200 ppm calcifediol in an amount of 150 ppm (based on feed with 88% dry solids) was mixed into the broiler fattening feed.
For stall V1 (experimental group with diurnoside plus calcitriol), the feed additive according to the invention, containing 100 ppm diurnoside and 10 ppm calcitriol was mixed into the boiler fattening feed in an amount of 150 ppm (based on feed with 88% dry solids).
For the stall V2 (experimental group with cestrumoside plus calcifediol), the feed additive according to the invention, containing 20 ppm cestrumoside and 100 ppm calcifediol in an amount of 150 ppm (based on feed with 88% dry solids) was mixed into the broiler fattening feed. […]

| SMILES | effective doses for calcitriol and calcifediol |
| --- | --- |
| C=C1CC[C@H](O)C/C1=C/C=C1\CCC[C@]2(C)[C@@H]([C@H](C)CCCC(C)(C)O)CC[C@@H]12 [calcifediol] | reduced by one-half |
| C=C1/C(=C\C=C2/CCC[C@]3(C)[C@@H]([C@H](C)CCCC(C)(C)O)CC[C@@H]23)C[C@@H](O)C[C@@H]1O [calcitriol] | reduced by one-half |
